Test results as given in patent US20260042747A1, “KIT INHIBITORS, COMPOUNDS, PHARMACEUTICAL COMPOSITIONS, AND METHODS OF USE THEREOF” (Alivexis, Inc., priority 2022, published 2026).
Structures can show the parent of a compound that is named as a salt. Where two headings read alike, the source gives them in different places.

Assays:
[1] = target: recombinant human KIT tyrosine kinase protein (Homo sapiens (Human), UniProt P10721); assay: KIT tyrosine kinase assay (ADP-Glo); type: biochemical
Procedure: An in vitro assay utilizing the recombinant human KIT tyrosine kinase protein was developed to measure compound inhibition of KIT. KIT tyrosine kinase activity was measured by the ADP-Glo Kinase Assay system with poly […]) peptide substrate. Kinase Assay was performed in white 384-well plates and the luminescence was measured by Victor X5 Multilabel Counter (Perkin Elmer). Recombinant intracellular domain of human KIT protein was purchased from Carna Biosciences (Kobe, Japan). Poly […]) peptide was purchased from Sigma-Aldrich (St. Louis, Missouri, USA). ADP-Glo Kinase Assay reagent was purchased from Promega (Madison, Wisconsin, USA). Each test compound was dissolved in 100% DMSO to prepare 10 mM stock solutions. […] After the preincubation, 3 μL of substrate/ATP mixture was added and incubated for 1 hour at room temperature. The tyrosine phosphorylation by KIT kinase was quantified by ADP-Glo kinase assay kit following the manufacturer's protocol. Briefly, the phosphorylation reaction was terminated by adding 10 μL ADP-Glo reagent and incubated for 60 minutes at room temperature. 20 μL of Kinase Detection Reagent was added to each well and luminescence was measured by plate reader. […] Half maximal inhibitory concentration (IC50) was calculated by a Four […] Logistic Regression model using GraphPad Prism (GraphPad Software). The value without recombinant KIT protein and without test compound was used as a negative control (assay background).

M-07e cells = assay: SCF-dependent M-07e cell proliferation assay; type: cell-based, human; conditions: read-out: M-07e IC50
Procedure: SCF-dependent cell proliferation assay was developed to measure the inhibitory potency of the compounds in M-07e cells, which express wild-type human KIT protein. The assay was performed in 96-well plates and the IC50 of each KIT inhibitor was determined by CellTiter Glo Assay reagent and Victor X5 Multilabel Counter (Perkin Elmer).
M-07e cells were purchased from AcceGen Biotechnology. Cells were maintained with M-07e Growth medium: RPMI-1640 containing 20% FBS, 100 U/mL penicillin and 100 microgram/mL streptomycin, 10 ng/mL rhGM-CSF, 10 ng/mL rhSCF. M-07e cells were seeded at a density of 5000 cells/90 μL/well in 96-well plates. Test compounds were dissolved in 100% DMSO to make 20 mM stock solution and serially diluted 1:3 with 100% DMSO to make an 11-point dilution series with concen-trations from […] to 0.024 μM. The serially diluted compounds were then each diluted 1:50 with culture medium to obtain assay compound solutions containing 2% DMSO. Ten μL of assay compound solutions were added to the 90 μL of culture cell suspension in the 96-well plate, with a final DMSO concentration of 0.2%. The plates were then incubated in a 5% CO2 incubator at 37° C. for 3 days. To obtain Day Zero Controls for background calculation, cells were seeded at 5000 cells/100 μL in a new 96-well plate and processed on the same day. Both Day Zero controls and 3 day culture plates were then treated as follows. 100 μL of CellTiter Glo Assay reagent was added to each well and the plate was incubated at room temperature for 15 min on a shaker at 200-300 RPM. Then 100 μL of cell lysate samples were transferred to white wall 96-well plates and luminescence was measured by a plate reader. The luminescence of Day Zero Control was subtracted from the luminescence intensity of 3 day culture readings. The assay control for this experiment was cells treated with 0.2% DMSO in culture medium and wells with 100 μL of culture medium (0.2% DMSO without cells) were used as the blank for data analysis.
The IC50 value of each compound was determined by using % inhibition by nor-malizing inhibition in DMSO treated control wells to 0% using the following formula method: […]
Plot percent inhibition in proliferation of triplicates against the respective concen-trations of compound and fit the dose response curve using the sigmoidal dose response equation to generate the IC50 in GraphPad Prism 8 software.

[2] = Homo sapiens, M-07e, 72 h, SCF-dependent M-07e cell proliferation, 3 days, CellTiter Glo
[3] = SCF-dependent M-07e cell proliferation, 3 days, CellTiter Glo

Chain of recombinant human KIT tyrosine kinase protein (P10721 546-976): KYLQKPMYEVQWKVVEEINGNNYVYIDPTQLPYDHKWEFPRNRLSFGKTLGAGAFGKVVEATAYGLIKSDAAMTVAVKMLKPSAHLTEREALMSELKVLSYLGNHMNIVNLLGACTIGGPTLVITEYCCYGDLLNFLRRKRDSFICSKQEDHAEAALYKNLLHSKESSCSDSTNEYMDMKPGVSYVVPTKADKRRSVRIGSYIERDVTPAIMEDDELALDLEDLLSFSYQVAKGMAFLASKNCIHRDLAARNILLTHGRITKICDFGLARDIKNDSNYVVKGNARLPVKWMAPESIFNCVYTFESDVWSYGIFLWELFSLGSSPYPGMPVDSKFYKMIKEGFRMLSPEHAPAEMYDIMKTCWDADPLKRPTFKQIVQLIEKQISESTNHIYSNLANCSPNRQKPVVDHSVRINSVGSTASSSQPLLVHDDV

Row | SMILES | IC50 ([1]; Table 99) | IC50 (M-07e cells; Homo sapiens, M-07e, 72 h) | IC50 ([1]; Table 98) | IC50 (M-07e cells; [2]) | IC50 (M-07e cells; [3])
1 | CN(c1ccc(CNC(=O)c2ccc3c(c2)[nH]c(=O)n3C)cn1)C1[C@H]2CC(F)(F)C[C@@H]12 (some centres unmarked) [Example 126] | 33 nM | 806 nM | – | – | –
2 | CN(c1ccc(CNC(=O)c2ccc3c(c2)[nH]c(=O)n3C)cn1)[C@@H]1CC[C@H](F)C1 [Example 134] | 38 nM | 62 nM | – | – | –
3 | Cn1c(=O)[nH]c2cc(C(=O)NCc3ccc(Nc4ccc(F)cc4)nc3)ccc21 [Example 57] | – | – | 227 nM | 7300 nM | –
4 | Cn1c(=O)[nH]c2cc(C(=O)NCc3ccc(Oc4ccc(Cl)cc4F)nc3)ccc21 [Example 39] | – | 140 nM | 35 nM | – | –
5 | C[C@H]1CCCN1c1ccc(CNC(=O)c2ccc3c(c2)[nH]c(=O)n3C)cn1 [Compound 14, (S)-1-Methyl-N-((6-(2-methylpyrrolidin-1-yl)pyridin-3-yl)methyl)-2-oxo-2,3-dihydro-1H-benzimidazole-5-carboxamide] | – | – | 63 nM | 560 nM | –
6 | CC(C)N1CCc2cc(CNC(=O)c3ccc4c(c3)[nH]c(=O)n4C)cnc21 [Compound 17, N-((1-Isopropyl-2,3-dihydro-1H-pyrrolo[2,3-b]pyridin-5-yl)methyl)-1-methyl-2-oxo-2,3-dihydro-1H-benzimidazole-5-carboxamide] | – | – | 22 nM | 390 nM | –
7 | CC(NC(=O)c1ccc2c(c1)[nH]c(=O)n2C)c1ccc(N(C)C(C)C)nc1 (centres unmarked) [Example 130] | 222 nM | – | – | 1860 nM | –
8 | CN(Cc1cccc(F)c1)c1ccc(CNC(=O)c2ccc3c(c2)[nH]c(=O)n3C)cn1 [Example 73] | – | 98 nM | 27 nM | – | –
9 | CN(Cc1ccccc1F)c1ccc(CNC(=O)c2ccc3c(c2)[nH]c(=O)n3C)cn1 [Example 74] | – | 110 nM | 25 nM | – | –
10 | Cn1c(=O)[nH]c2cc(C(=O)NCc3cnc4c(ccn4-c4ccccc4F)c3)ccc21 [Example 100] | – | 250 nM | 53 nM | – | –
11 | CN(CC1CCC(F)(F)CC1)c1ccc(CNC(=O)c2ccc3c(c2)[nH]c(=O)n3C)cn1 [Example 70] | – | 140 nM | 61 nM | – | –
12 | CN(CC1CCC(F)(F)CC1)c1ncc(CNC(=O)c2ccc3c(c2)[nH]c(=O)n3C)s1 [Example 92] | – | 1900 nM | 59 nM | – | –
13 | CC(c1ccccc1)N(C)c1ccc(CNC(=O)c2ccc3c(c2)[nH]c(=O)n3C)cn1 (single isomer, unassigned) [82 Peak 2] | – | – | 29 nM | – | 620 nM
14 | C[C@@H]1CCCN1c1ccc(CNC(=O)c2ccc3c(c2)[nH]c(=O)n3C)cn1 [Example 99] | – | 540 nM | 50 nM | – | –
15 | [2H]C([2H])([2H])n1c(=O)[nH]c2cc(C(=O)NCc3ccc(N(C)[C@H]4C[C@@H](C(F)(F)F)C4)nc3)ccc21 (relative stereo) [Example 116, 1-(Trideuteromethyl)-N-((6-(methyl(cis-3-(trifluoromethyl)cyclobutyl)amino)pyridin-3-yl)methyl)-2-oxo-2,3-dihydro-1H-benzimidazole-5-carboxamide] | 29 nM | – | – | 28 nM | –
16 | CN(c1ccc(CNC(=O)c2ccc3c(c2)[nH]c(=O)n3C)cn1)C1CC2(C1)CC2(F)F (centres unmarked) [Example 125] | 31 nM | 151 nM | – | – | –
17 | CN(c1ccc(CNC(=O)c2ccc3c(c2)[nH]c(=O)n3C)cn1)C1CC(C)(C)C1 [Example 77] | – | 110 nM | 29 nM | – | –
18 | C[C@H]1CCCN1c1cnc(CNC(=O)c2ccc3c(c2)[nH]c(=O)n3C)cn1 [Example 98] | – | 990 nM | 71 nM | – | –
19 | CN(c1ccc(CNC(=O)c2ccc3c(c2)[nH]c(=O)n3C)cn1)[C@H]1CCC(F)(F)C1 [Example 105, (S)—N-((6-((3,3-Difluorocyclopentyl)(methyl)amino)pyridin-3-yl)methyl)-1-methyl-2-o xo-2,3-dihydro-1H-benzimidazole-5-carboxamide] | 21 nM | – | – | 13 nM | –

Row | SMILES | IC50 ([1]; Table 99) | IC50 (M-07e cells; Homo sapiens, M-07e, 72 h) | IC50 ([1]; Table 98) | IC50 (M-07e cells; [2]) | IC50 (M-07e cells; [3])
20 | CN(c1ccc(CNC(=O)c2cc(F)c3[nH]c(=O)[nH]c3c2)cn1)C1CC(F)(F)C1 [Example 144] | 57 nM | – | – | 3560 nM | –
21 | CN(c1ccc(CNC(=O)c2ccc3c(c2)[nH]c(=O)n3C)cn1)c1cccc(F)c1F [Example 61] | – | 760 nM | 56 nM | – | –
22 | COc1cc(C(=O)NCc2ccc(N(C)[C@H]3C[C@@H](C(F)(F)F)C3)nc2)cc2[nH]c(=O)[nH]c12 [Example 145] | 15 nM | 515 nM | – | – | –
23 | CC(C)N(C)c1ccc(CNC(=O)c2ccc3[nH]c(=O)[nH]c3c2)cn1 [Example 129] | 20 nM | – | – | 1020 nM | –
24 | Cn1c(=O)[nH]c2cc(C(=O)NCc3ccc(OC4CCOC(C)(C)C4)nc3)ccc21 (centres unmarked) [Example 48] | – | 8900 nM | 550 nM | – | –
25 | Cn1c(=O)[nH]c2cc(C(=O)NCc3cnc4c(c3)CCN4C3CCC(F)(F)CC3)ccc21 [Compound 18, N-((1-(4,4-difluorocyclohexyl)-2,3-dihydro-1H-pyrrolo[2,3-b]pyridin-5-yl)methyl)-1-met hyl-2-oxo-2,3-dihydro-1H-benzimidazole-5-carboxamide] | – | – | 57 nM | 210 nM | –
26 | CN(c1ccc(CNC(=O)c2cc(F)c3[nH]c(=O)[nH]c3c2)cn1)C1CCC(F)(F)CC1 [Example 143] | 35 nM | – | – | 1460 nM | –
27 | CC(C1CC1)N(C)c1ccc(CNC(=O)c2ccc3c(c2)[nH]c(=O)n3C)cn1 (centres unmarked) [Example 83] | – | 300 nM | 41 nM | – | –
28 | Cn1c(=O)[nH]c2cc(C(=O)NCc3cnc4c(c3)CCN4c3c(F)cccc3F)ccc21 [Example 102] | 55 nM | 270 nM | – | – | –
29 | Cn1c(=O)[nH]c2cc(C(=O)NCc3ccc(Oc4ccc(F)cc4F)nc3)ccc21 [Compound 4, N-((6-(2,4-Difluorophenoxy)pyridin-3-yl)methyl)-1-methyl-2-oxo-2,3-dihydro-1H-benzi midazole-5-carboxamide] | – | – | 21 nM | 380 nM | –
30 | CN(Cc1ccccn1)c1ccc(CNC(=O)c2ccc3c(c2)[nH]c(=O)n3C)cn1 [Example 76] | – | 1600 nM | 86 nM | – | –
31 | CN(CC1CC(F)(F)C1)c1ccc(CNC(=O)c2ccc3c(c2)[nH]c(=O)n3C)cn1 [Example 68] | – | 130 nM | 42 nM | – | –
32 | CN(c1ccc(CNC(=O)c2ccc3c(c2)[nH]c(=O)n3C)cn1)C1CC(F)(F)C1 [Example 65] | – | 270 nM | 35 nM | – | –
33 | CC(c1ccccc1)N(C)c1ccc(CNC(=O)c2ccc3c(c2)[nH]c(=O)n3C)cn1 (centres unmarked) [Example 82] | – | – | 75 nM | 730 nM | –
34 | CCC(C)N(C)c1ccc(CNC(=O)c2ccc3c(c2)[nH]c(=O)n3C)cn1 (centres unmarked) [Example 84] | – | 180 nM | 16 nM | – | –
35 | Cn1c(=O)[nH]c2cc(C(=O)NCc3ccc(Oc4ccccc4F)nc3)c(F)cc21 [Compound 3, 6-Fluoro-N-((6-(2-fluorophenoxy)pyridin-3-yl)methyl)-1-methyl-2-oxo-2,3-dihydro-1H-benzimidazole-5-carboxamide trifluoroacetate] | – | – | 26 nM | 180 nM | –
36 | CN(c1ccc(CNC(=O)c2cc3[nH]c(=O)n(C)c3cc2F)cn1)C1CCC(F)(F)CC1 [Example 115, N-((6-((4,4-Difluorocyclohexyl)(methyl)amino)pyridin-3-yl)methyl)-6-fluoro-1-methyl-2-oxo-2,3-dihydro-1H-benzimidazole-5-carboxamide] | 21 nM | – | – | 70 nM | –
37 | CC(c1ccccc1)N(C)c1ccc(CNC(=O)c2ccc3c(c2)[nH]c(=O)n3C)cn1 (single isomer, unassigned) [82 Peak 1] | – | – | 180 nM | – | 6300 nM
